Source: EPA's ToxRefDB 2

What was measured:
[1] = system: rat; settings: Multigenerational reproductive toxicity study, sprague dawley, Oral, Feed, dose end: 2 generation
[2] = system: mouse; settings: Carcinogenicity, cd1, Oral, Feed, dose end: 78 week, group: systemic
[3] = system: primate; settings: Subchronic oral toxicity in nonrodent, rhesus, Feed, dose end: 6 month, group: systemic, systemic / organ weight / thyroid gland / absolute
[4] = system: dog; settings: Chronic toxicity; beagle; Oral; Feed; dose end: 12 month; group: systemic; systemic / hematology / anemia / anemia - hemolytic + systemic / hematology / erythrocyte (rbc) count differential / erythrocyte (rbc) + …
[5] = system: rat; settings: Prenatal developmental toxicity study, sprague dawley, Oral, Gavage/Intubation, dose end: 15 GD
[6] = system: rat; settings: Combined chronic toxicity/carcinogenicity, sprague dawley, Oral, Feed, dose end: 31 month, group: systemic
[7] = system: rat; settings: Subchronic oral toxicity in rodents, sprague dawley, Feed, dose end: 90 day, group: systemic, systemic / in life observation / clinical signs / soft stools + systemic / in life observation / clinical signs / defecation (diarrhea)
[8] = system: mouse; settings: Subchronic oral toxicity in rodents, b6c3f1, Feed, dose end: 14 week, group: systemic
[9] = system: rat; settings: Subchronic oral toxicity in rodents, fischer, Feed, dose end: 14 week, group: systemic
[10] = system: mouse; settings: Carcinogenicity; b6c3f1; Oral; Feed; dose end: 2 year; group: systemic; systemic / pathology microscopic / liver / hypertrophy
[11] = system: rat; settings: Combined chronic toxicity/carcinogenicity, fischer, Oral, Feed, dose end: 2 year, group: systemic
[12] = group: offspring, systemic / organ weight / liver / nos
[13] = group: parental, systemic / organ weight / testes / nos
[14] = group: reproductive, reproductive / reproductive performance / precoital interval / precoital interval
[15] = systemic / clinical chemistry / thyroxine (t4) / thyroxine (t4), total
[16] = systemic / pathology microscopic / liver / adenoma + systemic / pathology microscopic / lung / adenoma + systemic / clinical chemistry / …
[17] = left thyroid + systemic / clinical chemistry / [other] / [other] + systemic / in life …
[18] = group: developmental, developmental / developmental malformation / bone / bent + developmental / developmental malformation / bone / incomplete ossification + …
[19] = group: maternal, reproductive / reproductive performance / postimplantation loss / postimplantation loss + reproductive / reproductive performance / …
[20] = systemic / hematology / platelet / platelet
[21] = systemic / in life observation / body weight / body weight + systemic / in life observation / body weight / body weight gain + systemic / …
[22] = systemic / clinical chemistry / alkaline phosphatase (alp/alk) / alkaline phosphatase (alp/alk)
[23] = systemic / in life observation / body weight / body weight + systemic / pathology microscopic / liver / hypertrophy

`S=C([S-])NCCNC(=S)[S-].[Mn+2]` [Maneb] was tested, and the LOAEL ([1]; group: offspring, developmental / developmental landmark / vaginal opening / vaginal opening) was 106 mg/kg/day, the NOAEL ([1]; group: offspring, developmental / developmental landmark / vaginal opening / vaginal opening + systemic / in life observation / body weight / offspring (pup) …) was 25.1 mg/kg/day and the LEL [1, 12] was 5.8 mg/kg/day. It also gave an NEL [1, 12] of under 5.8 mg/kg/day, an LOAEL ([1]; group: parental, systemic / organ weight / lung / nos) of 21.2 mg/kg/day and an NOAEL ([1]; group: parental, systemic / organ weight / lung / nos + systemic / in life observation / body weight / body weight + systemic / in life observation / body …) of 5.3 mg/kg/day. For the same compound, the LEL [1, 13] was 5.3 mg/kg/day, the NEL [1, 13] was under 5.3 mg/kg/day and the LEL [1, 14] was 106 mg/kg/day. For the same compound, the LOAEL [1, 14] was over 106 mg/kg/day, the NEL [1, 14] was 25.1 mg/kg/day and the NOAEL [1, 14] was at least 106 mg/kg/day. For the same compound, the LEL [2, 15] was 10.8 mg/kg/day, the NEL [2, 15] was under 10.8 mg/kg/day and the LOAEL [2, 16] was over 355 mg/kg/day. For the same compound, the NOAEL [2, 16] was at least 355 mg/kg/day, the LEL ([3]; left thyroid) was 15.5 mg/kg/day and the LOAEL ([3]; left thyroid) was 15.5 mg/kg/day. The NEL [3, 17] was 5.2 mg/kg/day, the NOAEL [3, 17] was 5.2 mg/kg/day and the LEL [4] was 7.18 mg/kg/day. The LOAEL [4] was 33.8 mg/kg/day, the NEL [4] was 1.71 mg/kg/day and the NOAEL [4] was 6.36 mg/kg/day. The LEL [5, 18] was 500 mg/kg/day, the LOAEL [5, 18] was over 500 mg/kg/day and the NEL [5, 18] was 100 mg/kg/day. It also gave an NOAEL [5, 18] of at least 500 mg/kg/day, an LEL [5, 19] of 100 mg/kg/day and an LOAEL [5, 19] of 100 mg/kg/day. For the same compound, the NEL [5, 19] was 20 mg/kg/day, the NOAEL [5, 19] was 20 mg/kg/day and the LEL ([6]; systemic / organ weight / adrenal gland / absolute) was 21.8 mg/kg/day. It also gave an NEL ([6]; systemic / organ weight / adrenal gland / absolute + systemic / pathology microscopic / pituitary gland / adenoma + systemic / pathology …) of 7.32 mg/kg/day, an LOAEL ([6]; systemic / pathology microscopic / urinary bladder / dysplasia + systemic / clinical chemistry / [other] / [other] + systemic / clinical …) of 68.4 mg/kg/day and an NOAEL ([6]; systemic / pathology microscopic / urinary bladder / dysplasia + systemic / pathology microscopic / skeletal muscle / sarcoma + systemic / …) of 20.4 mg/kg/day.

For `CCCCCC[C@H]1C(=O)O[C@H](C)[C@H](NC(=O)c2cccc(NC=O)c2O)C(=O)O[C@@H](C)[C@@H]1OC(=O)CC(C)C` [Antimycin A], the LEL [7] was 0.5 mg/kg/day, the LOAEL [7] was 0.5 mg/kg/day and the NEL [7] was under 0.5 mg/kg/day. It also gave an NOAEL [7] of under 0.5 mg/kg/day.

Compound `O=S(=O)(c1ccc(Cl)cc1)c1ccc(Cl)cc1` [4,4'-Dichlorodiphenyl sulfone] has an LEL [8, 20] of 3.5 mg/kg/day, an NEL [8, 20] of under 3.5 mg/kg/day and an LOAEL [8, 21] of 50 mg/kg/day. The NOAEL [8, 21] was 15 mg/kg/day, the LEL [9, 22] was 2 mg/kg/day and the NEL [9, 22] was under 2 mg/kg/day. For the same compound, the NOAEL ([9]; systemic / organ weight / liver / absolute + systemic / organ weight / liver / relative to body weight + systemic / clinical chemistry / …) was 2 mg/kg/day, the LOAEL ([9]; systemic / organ weight / liver / absolute + systemic / organ weight / liver / relative to body weight + systemic / pathology microscopic / …) was 6 mg/kg/day and the LEL [10] was 3.8 mg/kg/day. For the same compound, the LOAEL [10] was 3.8 mg/kg/day, the NEL [10] was under 3.8 mg/kg/day and the NOAEL [10] was under 3.8 mg/kg/day. The LEL ([11]; systemic / in life observation / body weight / body weight) was 1.5 mg/kg/day, the NEL [11, 23] was 0.5 mg/kg/day and the NOAEL [11, 23] was 1.5 mg/kg/day. The LOAEL ([11]; systemic / pathology microscopic / liver / hypertrophy) was 5 mg/kg/day.
